In patent publication US20020137929A1, “1 - (3-heterocyclylphenyl) isothiourea, -isourea, -guanidine and -amidine herbicidal agents” (Intellectual Property Department, BASF Aktiengesellschaft, priority 1998, published 2002):

Experiments:
[1] = tested on: CHEAL (Lambsquarters, Common); experiment: Postemergence herbicidal evaluation; assay type: in vivo, Chenopodium album; conditions: postemergence
Summary of the method: (§1)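 Each compound, dispersed in an acetone/water mix (50/50) carrying 0.5% TWEEN 20, is nozzle-sprayed at 40 psi on approximately two-week-old seedlings at about 0.0156–0.500 kg/ha. Plants are assessed 4–5 weeks afterward on a 0–9 scale relative to control; duplicate tests are averaged.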

CYPSE (Flatsedge) = experiment: Preemergence weed control under flooded paddy conditions; assay type: in vivo, Cyperus serotinus; conditions: rated 3-4 weeks after treatment
Summary of the method: (§2)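 Using flooded silt loam (water 1.5 to 3 cm deep), seeds sown in the top 0.5 cm were exposed preemergence to compound pipetted into the flood at about 0.0313 to 0.500 kg/ha. Effects were scored 0-9 by eye three to four weeks later.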

CASOB (Sicklepod) = experiment: Postemergence herbicidal evaluation; assay type: in vivo, Cassia obtusifolia; conditions: postemergence
Summary of the method: as §1

[2] = tested on: GLXMAW (Soybean, Williams); experiment: Preemergence herbicidal evaluation; assay type: in vivo, Glycine max, (L.) Merr. cv Williams; conditions: rated 4-5 weeks after treatment
Excerpt: Results of herbicide evaluation are expressed on a rating scale (0-9). The scale is based upon a visual observation of plant stand, vigor, malformation, size, chlorosis and overall plant appearance as compared with a control.
The preemergence herbicidal activity of the test compounds of the present invention is exemplified by the following tests in which the seeds of a variety of monocotyledonous and dicotyledonous plants are separately mixed with potting soil and planted on top of approximately one inch of soil in separate pint cups. After planting, the cups are sprayed with the selected aqueous acetone solution containing test compound in sufficient quantity to provide the equivalent of about 0.0156 to 0.500 kg per hectare of test compound per cup. The treated cups are then placed on greenhouse benches, watered and cared for in accordance with conventional greenhouse procedures. From four to five weeks after treatment, the tests are terminated and each cup is examined and rated according to the rating system provided in Example 37.
The compounds evaluated are reported by compound number given in Example 37.

GALAP (Galium) = experiment: Postemergence herbicidal evaluation; assay type: in vivo, Galium aparine; conditions: postemergence
Summary of the method: as §1

MOOVA (Monochoria) = experiment: Preemergence weed control under flooded paddy conditions; assay type: in vivo, Monochoria vaginalis; conditions: rated 3-4 weeks after treatment
Summary of the method: as §2

AMBEL (Ragweed, Common) = experiment: Preemergence herbicidal evaluation; assay type: in vivo, Ambrosia artemisifolia; conditions: rated 4-5 weeks after treatment
Summary of the method: (§3)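 Each species is sown separately in potting soil over roughly an inch of soil before any emergence. The soil surface then receives an aqueous acetone spray delivering about 0.0156 to 0.500 kg/ha of compound. After four to five weeks, injury is scored from 0 to 9 relative to a control.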

SETVI (Foxtail, Green) = experiment: Preemergence herbicidal evaluation; assay type: in vivo, Setaria viridis; conditions: rated 4-5 weeks after treatment
Summary of the method: as §3

ORYSAT (Rice, Tebonnet) [3] = experiment: Postemergence herbicidal evaluation; assay type: in vivo, Oryza sativa, (L.) Tebonnet; conditions: postemergence
Summary of the method: as §1

ZEAMX (Corn, Field) = experiment: Postemergence herbicidal evaluation; assay type: in vivo, Zea mays; conditions: postemergence
Summary of the method: as §1

ORYSAT (Rice, Tebonnet) [4] = experiment: Preemergence herbicidal evaluation; assay type: in vivo, Oryza sativa, (L.) Tebonnet; conditions: rated 4-5 weeks after treatment
Summary of the method: as §3

CC(C)COC(=O)CN1C(=O)CSC1=Nc1cc(-n2c(=O)cc(C(F)(F)F)n(C)c2=O)c(F)cc1Cl [Compound 121, Isobutyl 2-{{2-chloro-5-[3,6-dihydro-3-methyl-2,6-dioxo-4-(trifluoromethyl)-1(2H)-pyrimidinyl]-4-fluorophenyl}imino}-4-oxo-3-thiazolidineacetate]
Herbicidal rating CHEAL ([1]; rate 0.0156 kg/ha): 4.0
Herbicidal rating CHEAL ([1]; rate 0.0313 kg/ha): 7.0
Herbicidal rating CHEAL ([1]; rate 0.0625 kg/ha): 9.0
herbicidal effect rating, CYPSE (CYPSE (Flatsedge); 0.0313 kg/ha): 2.0
herbicidal effect rating, CYPSE (CYPSE (Flatsedge); 0.1250 kg/ha): 5.0
herbicidal effect rating, CYPSE (CYPSE (Flatsedge); 0.2500 kg/ha): 5.0
Herbicidal rating CASOB (CASOB (Sicklepod); rate 0.0156 kg/ha): 0.0
Herbicidal rating CASOB (CASOB (Sicklepod); rate 0.0313 kg/ha): 1.0
Herbicidal rating CASOB (CASOB (Sicklepod); rate 0.0625 kg/ha): 7.0
Preemergence herbicidal rating GLXMAW ([2]; rate 0.0156 kg/ha): 0.0
Preemergence herbicidal rating GLXMAW ([2]; rate 0.0313 kg/ha): 0.0
Preemergence herbicidal rating GLXMAW ([2]; rate 0.0625 kg/ha): 0.0
Preemergence herbicidal rating GLXMAW ([2]; rate 0.1250 kg/ha): 1.0
Preemergence herbicidal rating GLXMAW ([2]; rate 0.2500 kg/ha): 2.0
Herbicidal rating GALAP (GALAP (Galium); rate 0.0156 kg/ha): 0.0
Herbicidal rating GALAP (GALAP (Galium); rate 0.0313 kg/ha): 0.0
Herbicidal rating GALAP (GALAP (Galium); rate 0.0625 kg/ha): 3.0
herbicidal effect rating, MOOVA (MOOVA (Monochoria); 0.0313 kg/ha): 9.0
herbicidal effect rating, MOOVA (MOOVA (Monochoria); 0.0625 kg/ha): 9.0
herbicidal effect rating, MOOVA (MOOVA (Monochoria); 0.1250 kg/ha): 9.0
herbicidal effect rating, MOOVA (MOOVA (Monochoria); 0.2500 kg/ha): 9.0
Preemergence herbicidal rating AMBEL (AMBEL (Ragweed, Common); rate 0.0156 kg/ha): 0.0
Preemergence herbicidal rating AMBEL (AMBEL (Ragweed, Common); rate 0.0313 kg/ha): 2.0
Preemergence herbicidal rating AMBEL (AMBEL (Ragweed, Common); rate 0.0625 kg/ha): 3.0
Preemergence herbicidal rating AMBEL (AMBEL (Ragweed, Common); rate 0.1250 kg/ha): 4.0
Preemergence herbicidal rating AMBEL (AMBEL (Ragweed, Common); rate 0.2500 kg/ha): 8.0
Preemergence herbicidal rating SETVI (SETVI (Foxtail, Green); rate 0.0156 kg/ha): 0.0
Preemergence herbicidal rating SETVI (SETVI (Foxtail, Green); rate 0.0313 kg/ha): 3.0
Preemergence herbicidal rating SETVI (SETVI (Foxtail, Green); rate 0.0625 kg/ha): 7.0
Preemergence herbicidal rating SETVI (SETVI (Foxtail, Green); rate 0.1250 kg/ha): 9.0
Preemergence herbicidal rating SETVI (SETVI (Foxtail, Green); rate 0.2500 kg/ha): 9.0
Herbicidal rating ORYSAT (ORYSAT (Rice, Tebonnet) [3]; rate 0.0156 kg/ha): 2.0
Herbicidal rating ORYSAT (ORYSAT (Rice, Tebonnet) [3]; rate 0.0313 kg/ha): 2.5
Herbicidal rating ORYSAT (ORYSAT (Rice, Tebonnet) [3]; rate 0.0625 kg/ha): 3.0
Herbicidal rating ZEAMX (ZEAMX (Corn, Field); rate 0.0156 kg/ha): 5.0
Herbicidal rating ZEAMX (ZEAMX (Corn, Field); rate 0.0313 kg/ha): 5.0
Herbicidal rating ZEAMX (ZEAMX (Corn, Field); rate 0.0625 kg/ha): 6.0
Preemergence herbicidal rating ORYSAT (ORYSAT (Rice, Tebonnet) [4]; rate 0.0156 kg/ha): 0.0
Preemergence herbicidal rating ORYSAT (ORYSAT (Rice, Tebonnet) [4]; rate 0.0313 kg/ha): 0.0
Preemergence herbicidal rating ORYSAT (ORYSAT (Rice, Tebonnet) [4]; rate 0.0625 kg/ha): 0.0
Preemergence herbicidal rating ORYSAT (ORYSAT (Rice, Tebonnet) [4]; rate 0.1250 kg/ha): 4.0
Preemergence herbicidal rating ORYSAT (ORYSAT (Rice, Tebonnet) [4]; rate 0.2500 kg/ha): 5.0

Cn1c(C(F)(F)F)cc(=O)n(-c2cc(N=C3SCC(=O)N3CC(=O)OCC3CCCCC3)c(Cl)cc2F)c1=O [Compound 123, Cyclohexylmethyl 2-{{2-chloro-5-[3,6-dihydro-3-methyl-2,6-dioxo-4-(trifluoromethyl)-1(2H)-pyrimidinyl]-4-fluorophenyl}imino}-4-oxo-3-thiazolidineacetate]
Herbicidal rating CHEAL ([1]; rate 0.0156 kg/ha): 9.0
Herbicidal rating CHEAL ([1]; rate 0.0313 kg/ha): 9.0
Herbicidal rating CHEAL ([1]; rate 0.0625 kg/ha): 9.0
Herbicidal rating CHEAL ([1]; rate 0.1250 kg/ha): 9.0
herbicidal effect rating, CYPSE (CYPSE (Flatsedge); 0.0313 kg/ha): 5.0
herbicidal effect rating, CYPSE (CYPSE (Flatsedge); 0.0625 kg/ha): 9.0
herbicidal effect rating, CYPSE (CYPSE (Flatsedge); 0.1250 kg/ha): 9.0
herbicidal effect rating, CYPSE (CYPSE (Flatsedge); 0.2500 kg/ha): 9.0
Herbicidal rating CASOB (CASOB (Sicklepod); rate 0.0156 kg/ha): 3.0
Herbicidal rating CASOB (CASOB (Sicklepod); rate 0.0313 kg/ha): 3.0
Herbicidal rating CASOB (CASOB (Sicklepod); rate 0.0625 kg/ha): 9.0
Herbicidal rating CASOB (CASOB (Sicklepod); rate 0.1250 kg/ha): 8.0
Preemergence herbicidal rating GLXMAW ([2]; rate 0.0156 kg/ha): 0.0
Preemergence herbicidal rating GLXMAW ([2]; rate 0.0313 kg/ha): 0.0
Preemergence herbicidal rating GLXMAW ([2]; rate 0.0625 kg/ha): 1.0
Preemergence herbicidal rating GLXMAW ([2]; rate 0.1250 kg/ha): 4.0
Preemergence herbicidal rating GLXMAW ([2]; rate 0.2500 kg/ha): 9.0
Preemergence herbicidal rating GLXMAW ([2]; rate 0.5000 kg/ha): 6.0
Herbicidal rating GALAP (GALAP (Galium); rate 0.0156 kg/ha): 2.0
Herbicidal rating GALAP (GALAP (Galium); rate 0.0313 kg/ha): 4.0
Herbicidal rating GALAP (GALAP (Galium); rate 0.0625 kg/ha): 6.0
Herbicidal rating GALAP (GALAP (Galium); rate 0.1250 kg/ha): 7.0
herbicidal effect rating, MOOVA (MOOVA (Monochoria); 0.0313 kg/ha): 6.0
herbicidal effect rating, MOOVA (MOOVA (Monochoria); 0.0625 kg/ha): 7.0
herbicidal effect rating, MOOVA (MOOVA (Monochoria); 0.1250 kg/ha): 9.0
herbicidal effect rating, MOOVA (MOOVA (Monochoria); 0.2500 kg/ha): 9.0
Preemergence herbicidal rating AMBEL (AMBEL (Ragweed, Common); rate 0.0156 kg/ha): 2.0
Preemergence herbicidal rating AMBEL (AMBEL (Ragweed, Common); rate 0.0313 kg/ha): 1.0
Preemergence herbicidal rating AMBEL (AMBEL (Ragweed, Common); rate 0.0625 kg/ha): 3.0
Preemergence herbicidal rating AMBEL (AMBEL (Ragweed, Common); rate 0.1250 kg/ha): 4.0
Preemergence herbicidal rating AMBEL (AMBEL (Ragweed, Common); rate 0.2500 kg/ha): 9.0
Preemergence herbicidal rating AMBEL (AMBEL (Ragweed, Common); rate 0.5000 kg/ha): 9.0
Preemergence herbicidal rating SETVI (SETVI (Foxtail, Green); rate 0.0156 kg/ha): 7.0
Preemergence herbicidal rating SETVI (SETVI (Foxtail, Green); rate 0.0313 kg/ha): 7.0
Preemergence herbicidal rating SETVI (SETVI (Foxtail, Green); rate 0.0625 kg/ha): 7.0
Preemergence herbicidal rating SETVI (SETVI (Foxtail, Green); rate 0.1250 kg/ha): 9.0
Preemergence herbicidal rating SETVI (SETVI (Foxtail, Green); rate 0.2500 kg/ha): 9.0
Preemergence herbicidal rating SETVI (SETVI (Foxtail, Green); rate 0.5000 kg/ha): 9.0
Herbicidal rating ORYSAT (ORYSAT (Rice, Tebonnet) [3]; rate 0.0156 kg/ha): 4.0
Herbicidal rating ORYSAT (ORYSAT (Rice, Tebonnet) [3]; rate 0.0313 kg/ha): 4.0
Herbicidal rating ORYSAT (ORYSAT (Rice, Tebonnet) [3]; rate 0.0625 kg/ha): 5.5
Herbicidal rating ORYSAT (ORYSAT (Rice, Tebonnet) [3]; rate 0.1250 kg/ha): 5.5
Herbicidal rating ZEAMX (ZEAMX (Corn, Field); rate 0.0156 kg/ha): 6.5
Herbicidal rating ZEAMX (ZEAMX (Corn, Field); rate 0.0313 kg/ha): 7.0
Herbicidal rating ZEAMX (ZEAMX (Corn, Field); rate 0.0625 kg/ha): 7.5
Herbicidal rating ZEAMX (ZEAMX (Corn, Field); rate 0.1250 kg/ha): 7.5
Preemergence herbicidal rating ORYSAT (ORYSAT (Rice, Tebonnet) [4]; rate 0.0156 kg/ha): 0.0
Preemergence herbicidal rating ORYSAT (ORYSAT (Rice, Tebonnet) [4]; rate 0.0313 kg/ha): 0.0
Preemergence herbicidal rating ORYSAT (ORYSAT (Rice, Tebonnet) [4]; rate 0.0625 kg/ha): 0.0
Preemergence herbicidal rating ORYSAT (ORYSAT (Rice, Tebonnet) [4]; rate 0.1250 kg/ha): 1.0
Preemergence herbicidal rating ORYSAT (ORYSAT (Rice, Tebonnet) [4]; rate 0.2500 kg/ha): 3.0
Preemergence herbicidal rating ORYSAT (ORYSAT (Rice, Tebonnet) [4]; rate 0.5000 kg/ha): 5.0
